The values that follow are results of earlier work, collected in US20240165002A1, “Compositions Incorporating Avobenzone Complexes” (University of Cincinnati, priority 2022, published 2024).

The conditions of series [1]: at 360 nm.

For `COc1ccc(C(=O)CC(=O)c2ccc(C(C)(C)C)cc2)cc1` [Avobenzone, 1-(4-methoxyphenyl)-3-(4-tertbutylphenyl)-propane-1,3-dione], the molar absorption coefficient in series [1] is listed as 33,756 L/(mol·cm). Also, the “duration of photoprotection once exposed to sun” value (once exposed to sun) is 30 min. For the same compound, the photostability entry (upon exposure to light, keto-enol tautomerization) is given as “poor photostability”.
